Results on 54 molecules are retold here after the PolyMetriX glass transition set.

Test in series [1]: not given
This is another data set of the same source.

Where a name gives a salt, the structure may show the parent alone. ± gives the standard deviation of the reports.

Take `*Oc1ccc(C(c2ccc(Oc3ccc4c(c3)C(=O)N(CCCCN3C(=O)c5ccc(*)cc5C3=O)C4=O)cc2)(C(F)(F)F)C(F)(F)F)cc1` (repeat unit): the glass transition temperature is 180.00 °C.

Regarding `*c1ccc(Oc2ccc(C(C)(C)c3ccc(Oc4ccc(-n5c(=O)c6cc7c(=O)n(*)c(=O)c7cc6c5=O)cc4)cc3)cc2)cc1` (repeat unit), the glass transition temperature was 283.00 °C.

The molecule `*Oc1ccc(Sc2ccc(Oc3ccc4c(c3)C(=O)N(c3cc(N5C(=O)c6ccc(*)cc6C5=O)cc(C(F)(F)F)c3)C4=O)cc2)cc1` (repeat unit) yielded a glass transition temperature of 218.00 °C.

Molecule `*c1ccc(-c2ccc(N3C(=O)c4cc5c(cc4C3=O)C(C(F)(F)F)(C(F)(F)F)c3cc4c(cc3O5)C(=O)N(*)C4=O)cc2OC(C)(F)F)c(OC(C)(F)F)c1` (repeat unit) yielded a glass transition temperature of 363.00 °C.

With `*Sc1ccc2c(c1)C(=O)N(c1ccc(Oc3ccc4ccccc4c3-c3c(Oc4ccc(N5C(=O)c6ccc(*)cc6C5=O)cc4C(F)(F)F)ccc4ccccc34)c(C(F)(F)F)c1)C2=O` (repeat unit), the glass transition temperature came to 273.00 °C.

`*C(=O)c1cccc(Cc2ccc3c(c2)C(=O)N(c2cc(N4C(=O)c5ccc(*)cc5C4=O)cc(C(F)(F)F)c2)C3=O)c1` (repeat unit) gave a glass transition temperature of 253.00 °C.

Molecule `*c1ccc2c(c1)C(=O)N(c1ccc(-c3ccc(N4C(=O)c5ccc(C(*)(C(F)(F)F)C(F)(F)F)cc5C4=O)cc3C#N)c(C#N)c1)C2=O` (repeat unit) had a glass transition temperature of 331.00 °C.

In turn, `*c1ccc2c(c1)C(=O)N(c1ccc(-c3ccc(N4C(=O)c5ccc(C(*)(C(F)(F)F)C(F)(F)F)cc5C4=O)cc3C)c(C)c1)C2=O` (repeat unit) showed a glass transition temperature of 325.00 °C.

As to `*C(=O)Nc1ccc2ccccc2c1-c1c(NC(=O)c2ccc3c(c2)C(=O)N(c2ccc(Oc4ccc(N5C(=O)c6ccc(*)cc6C5=O)cc4)cc2)C3=O)ccc2ccccc12` (repeat unit), the glass transition temperature turned out to be 287.80 °C.

As to `*C(=O)c1ccc2c(c1)C(=O)N(c1ccc(C)c(N3C(=O)c4ccc(*)cc4C3=O)c1C)C2=O` (repeat unit), the glass transition temperature amounted to 384.00 °C.

As to `*C(=O)c1ccc2c(c1)C(=O)N(c1ccc(Oc3cccc(N4C(=O)c5ccc(*)cc5C4=O)c3)cc1)C2=O` (repeat unit), the glass transition temperature was 252.00 °C.

For the molecule `*Sc1cccc2c1C(=O)N(c1cc(Cc3ccc(N4C(=O)c5cccc(*)c5C4=O)c(C)c3)ccc1C)C2=O` (repeat unit), the glass transition temperature was 274.00 °C.

Molecule `*C1=C(Cl)C(=O)N(c2ccc(Cc3ccc(N4C(=O)C(Cl)=C(Oc5ccc(C(C)(C)c6ccc(*)cc6)cc5)C4=O)cc3)cc2)C1=O` (repeat unit) came in with a glass transition temperature of 173.00 °C.

`*C1=C(Cl)C(=O)N(c2ccc(Cc3ccc(N4C(=O)C(Cl)=C(Oc5ccc(*)cc5)C4=O)cc3)cc2)C1=O` (repeat unit) returned a glass transition temperature of 192.00 °C.

Regarding `*Oc1cccc(C(C)(C)c2ccc(Oc3cccc4c3C(=O)N(c3ccc(Oc5ccc(N6C(=O)c7cccc(*)c7C6=O)cc5)cc3)C4=O)cc2)c1` (repeat unit), the glass transition temperature stood at 235.00 °C.

The molecule `*Sc1cccc2c1C(=O)N(c1ccc(Oc3ccc(Oc4ccc(N5C(=O)c6cccc(*)c6C5=O)cc4)cc3)cc1)C2=O` (repeat unit) displayed a glass transition temperature of 250.00 °C.

In turn, `*Oc1cccc(C(C)(C)c2ccc(Oc3ccc4c(c3)C(=O)N(c3ccc(Oc5cccc(Oc6ccc(N7C(=O)c8ccc(*)cc8C7=O)cc6)c5)cc3)C4=O)cc2)c1` (repeat unit) had a glass transition temperature of 178.00 °C.

For the molecule `*Oc1cccc(Oc2ccc(Oc3ccc4c(c3)C(=O)N(c3ccc(Oc5cccc(Oc6ccc(N7C(=O)c8ccc(*)cc8C7=O)cc6)c5)cc3)C4=O)cc2)c1` (repeat unit), the glass transition temperature was determined as 184.00 °C.

Turning to `*Oc1cccc(C(C)(C)c2ccc(Oc3cccc4c3C(=O)N(c3ccc(Oc5cccc(Oc6ccc(N7C(=O)c8cccc(*)c8C7=O)cc6)c5)cc3)C4=O)cc2)c1` (repeat unit), the glass transition temperature was determined as 202.00 °C.

Molecule `*Oc1cccc(Oc2ccc(Oc3cccc4c3C(=O)N(c3ccc(Oc5cccc(Oc6ccc(N7C(=O)c8cccc(*)c8C7=O)cc6)c5)cc3)C4=O)cc2)c1` (repeat unit) came in with a glass transition temperature of 198.00 °C.

Consider `*Oc1cccc(Sc2ccc(Oc3cccc4c3C(=O)N(c3ccc(Oc5cccc(Oc6ccc(N7C(=O)c8cccc(*)c8C7=O)cc6)c5)cc3)C4=O)cc2)c1` (repeat unit), for which the glass transition temperature was 230.00 °C.

With `*Oc1ccc2c(c1)C(=O)N(c1ccc(Sc3ccc(N4C(=O)c5ccc(*)cc5C4=O)cc3)cc1)C2=O` (repeat unit), the glass transition temperature is 269.00 °C.

Molecule `*Oc1cccc(Oc2ccc(Oc3ccc4c(c3)C(=O)N(c3cccc(N5C(=O)c6ccc(*)cc6C5=O)c3)C4=O)cc2)c1` (repeat unit) came in with a glass transition temperature of 227.00 °C.

The molecule `*Oc1cccc(Sc2ccc(Oc3ccc4c(c3)C(=O)N(c3cccc(N5C(=O)c6ccc(*)cc6C5=O)c3)C4=O)cc2)c1` (repeat unit) yielded a glass transition temperature of 209.00 °C.

The molecule `*c1ccc(Oc2ccc(Oc3ccc(-n4c(=O)c5ccc6c(=O)n(*)c(=O)c6c5c4=O)cc3)cc2)cc1` (repeat unit) showed a glass transition temperature of 292.00 °C.

In series [1], `*CC(*)C(=O)OCC(C)C` (repeat unit) [Poly(isobutyl acrylate) ] registered a glass transition temperature of -24 ± 30 °C.

For `*CC(*)OCC(C)C` (repeat unit) [Poly(isobutyl vinyl ether)], the glass transition temperature in series [1] was -22.08 ± 2.5 °C.

In turn, `*CCc1ccc(*)c(C)c1` (repeat unit) [Poly(methyl-p-xylylene) ] had a glass transition temperature in series [1] of 55 ± 1.9 °C.

On to `*CC(*)(C)C(=O)OCCC` (repeat unit) [Poly(n-propyl methacrylate) ], for which the glass transition temperature in series [1] stood at 35 ± 5.4 °C.

In turn, `*CC(*)(C)C(=O)OCC(C)(C)C` (repeat unit) [Poly(neopentyl methacrylate) ] yielded a glass transition temperature in series [1] of 33 ± 3.7 °C.

The molecule `*CC(*)OCCCCCCCC` (repeat unit) [Poly(octyl vinyl ether)] returned a glass transition temperature in series [1] of -79.83 ± 0.9 °C.

Turning to `*CC(CCl)(CCl)CO*` (repeat unit) [Poly(oxy-2,2-dichloromethyltrimethylene) ], the glass transition temperature in series [1] is -8 ± 10 °C.

As for `*CCC(C)CCC(=O)O*` (repeat unit) [Poly(oxycarbonyl-3-methylpentamethylene) ], the glass transition temperature in series [1] was -53 ± 0.6 °C.

Turning to `*CC(*)c1ccc(OC)cc1` (repeat unit) [Poly(p-methoxy styrene) ], the glass transition temperature in series [1] worked out at 89 ± 12 °C.

In series [1], `*CC(*)c1ccc(C)cc1` (repeat unit) [Poly(p-methyl styrene) ] yielded a glass transition temperature of 101 ± 1.6 °C.

In turn, `*CC(*)c1ccc(C(C)(C)C)cc1` (repeat unit) [Poly(p-t-butyl styrene)] yielded a glass transition temperature in series [1] of 129 ± 5.6 °C.

In turn, `*CCc1ccc(*)cc1` (repeat unit) [Poly(p-xylene)] registered a glass transition temperature in series [1] of 70 ± 10 °C.

Molecule `*CC(*)C(=O)c1ccccc1` (repeat unit) [Poly(phenyl vinyl ketone)] had a glass transition temperature in series [1] of 60.80 ± 17 °C.

In turn, `*CC(C)O*` (repeat unit) [Poly(propylene glycol)] came in with a glass transition temperature in series [1] of -69.18 ± 2.6 °C.

Take `*CCCCO*` (repeat unit) [Poly(tetramethylene glycol)]: in series [1], the glass transition temperature was -83.6 ± 2.2 °C.

The molecule `*CCCCOC(=O)c1cccc(C(=O)O*)c1` (repeat unit) [Poly(tetramethylene isophthalate)] came in with a glass transition temperature in series [1] of 21.42 ± 3.4 °C.

`*CC(*)O` (repeat unit) [Poly(vinyl alcohol)]: the glass transition temperature in series [1] was determined as 79.67 ± 32 °C.

`*CC(*)Cl` (repeat unit) [Poly(vinyl chloride)]: in series [1], the glass transition temperature was determined as 78.42 ± 2.2 °C.

The molecule `*CC(*)C1CCCC1` (repeat unit) [Poly(vinyl cyclopentane) ] came in with a glass transition temperature in series [1] of 75 ± 0.6 °C.

Molecule `*CC(*)OC(C)CC` (repeat unit) [Poly(vinyl sec-butyl ether) ] gave a glass transition temperature in series [1] of -22 ± 3 °C.

As to `*CC(*)OC(=O)C(F)(F)F` (repeat unit) [Poly(vinyl trifluoroacetate) ], the glass transition temperature in series [1] was determined as 46 ± 5.6 °C.

With `*CC(*)(F)F` (repeat unit) [Poly(vinylidene fluoride)], the glass transition temperature in series [1] was -32.77 ± 2.3 °C.

In the case of `*CC/C=C(/*)Cl` (repeat unit) [Polychloroprene ], the glass transition temperature in series [1] is -48 ± 18 °C.

With `*CO*` (repeat unit) [Polyoxymethylene ], the glass transition temperature in series [1] is -56 ± 8.9 °C.

Molecule `*CCCO*` (repeat unit) [Polyoxytrimethylene ] showed a glass transition temperature in series [1] of -78 ± 3 °C.

Turning to `*CC(*)c1ccc(OC(C)=O)cc1` (repeat unit) [poly(4-acetoxystyrene)], the glass transition temperature in series [1] turned out to be 121.42 ± 12 °C.

As for `*c1ccc2c(c1)C(CCCCCCCC)(CCCCCCCC)c1cc(*)ccc1-2` (repeat unit) [poly(9,9-dioctylfluorene)], the glass transition temperature in series [1] stood at 71.00 ± 10 °C.

`*OC(C)C(*)=O` (repeat unit) [poly(l - lactic acid)]: the glass transition temperature in series [1] was found to be 51.4 ± 43 °C.

In series [1], `*CC(*)OC(C)=O` (repeat unit) [poly(vinyl acetate)] yielded a glass transition temperature of 40.92 ± 13 °C.
